B1: IL-7 (protein, UniProt P13232 26-177, looked up)
Interleukin-7: DCDIEGKDGKQYESVLMVSIDQLLDSMKEIGSNCLNNEFNFFKRHICDANKEGMFLFRAARKLRQFLKMNSTGDFDLHLLKVSEGTTILLNCTGQVKGRKPAALGEAQPTKSLEENKSLKEQKKLNDLCFLKRLLQEIKTCWNKILMGTKEH

Columns and labels:
[1] = test system: primary human naïve CD8+ T cells; format: cell-based
murine CD8+ T cells = test: IFN-γ expression and proliferation of murine CD8+ T cells; format: cell-based, mouse
CoV2 RBD protein = test system: CoV2 RBD protein; parameters: species or system SARS-CoV-2; conditions: in vivo

Molecule	development of TMSCs [1]	TMSC formation [1]	further results
6-bromo-substituted indirubin [BIO]	promoted the development of TMSCs		
O=C1Cc2c([nH]c3ccc(Br)cc23)-c2ncccc2N1 [1-Azakenpaullone]	promoted the development of TMSCs		
CC(=O)O/N=C1/C(=C2/C(=O)Nc3cc(Br)ccc32)Nc2ccccc21 [BIO-acetoxime]	promoted the development of TMSCs		
Nc1cccc(-c2cc3c(Oc4cccc(O)c4)ncnc3[nH]2)c1.O=C(O)C(F)(F)F.O=C(O)C(F)(F)F [TWS119]		could not induce TMSC formation	IFN-γ expression (murine CD8+ T cells; 4 days post treatment): inhibited; T cell proliferation (murine CD8+ T cells; CFSE proliferation staining): inhibited
IL-15		only a moderate advantage	TMSC expansion in culture [1]: significantly expanded TMSCs
Polyinosinic:polycytidylic acid [poly(I:C)]			humoral response (CoV2 RBD protein): strong humoral response; ratio of IgG2b to IgG1 titer (CoV2 RBD protein): balanced Th1/Th2 profile or Th2-dominant response
B1		only a moderate advantage	TMSC expansion in culture [1]: significantly expanded TMSCs
